{
  "source": "patent US20050070509A1",
  "about": "“Antimycotic agent” (priority 2001, published 2005)",
  "format_in_all_cases": "cell-based",
  "key": {"[1]": {"test_system": "Candida albicans", "assay": "agar incorporation test, growth inhibition of yeasts", "conditions": "Sabouraud agar, 30° C., patient isolates", "protocol": "(§1) The activity of the compound according to the invention as agent for inhibiting the growth of various types of yeasts was studied in an agar incorporation test. The nutrient medium used was Sabouraud agar. Several samples of each of the yeast types below, which were isolated directly from diseased patients, were tested: • a) Candida tropicalis • b) Candida albicans • c) Candida glabrata • d) Candida parapsilosis.\n(§2) The cultures were supplemented with bis(N-cyclohexyldiazeniumdioxy)copper in such an amount that an end concentration of 25 or 50 ppm was obtained. The cultures were subsequently incubated at 30° C., and the growth of the isolates was assessed after an incubation period of 2 to 5 days."}, "[2]": {"test_system": "Candida glabrata", "assay": "agar incorporation test, growth inhibition of yeasts", "conditions": "Sabouraud agar, 30° C., patient isolates", "protocol": "as §1, §2"}, "[3]": {"test_system": "Candida parapsilosis", "assay": "agar incorporation test, growth inhibition of yeasts", "conditions": "Sabouraud agar, 30° C., patient isolates", "protocol": "as §1, §2"}, "[4]": {"test_system": "Candida tropicalis", "assay": "agar incorporation test, growth inhibition of yeasts", "conditions": "Sabouraud agar, 30° C., patient isolates", "protocol": "as §1, §2"}, "[5]": {"test_system": "Epidermophyton floccosum", "assay": "agar incorporation test, growth inhibition of dermatophytes", "protocol": "as §1, §2\n(§3) The activity of the compound according to the invention for inhibiting the growth of the dermatophyte cultures below was studied in an agar incorporation test as described in Example 1. The active ingredient concentration in the samples amounted to 2.5, 5, 10, 15, 20, 25, 30, 35, 40, 45 and 50 ppm. The isolates were studied after an incubation period of 7, 14 and 21 days, and their growth was determined."}, "[6]": {"test_system": "Microsporum canis", "assay": "agar incorporation test, growth inhibition of dermatophytes", "protocol": "as §1, §2, §3"}, "[7]": {"test_system": "Scopulariopsis brevicaulis", "assay": "agar incorporation test, growth inhibition of dermatophytes", "protocol": "as §1, §2, §3"}, "[8]": {"test_system": "Trichlorophyton rubrum", "assay": "agar incorporation test, growth inhibition of dermatophytes", "protocol": "as §1, §2, §3"}, "[9]": {"test_system": "Trichophyton mentagrophytes", "assay": "agar incorporation test, growth inhibition of dermatophytes", "protocol": "as §1, §2, §3"}, "[10]": {"conditions": "active ingredient 25 ppm, incubation 2 and 5 days"}, "[11]": {"conditions": "active ingredient 50 ppm, incubation 2 to 5 days"}},
  "data": [
    {"smiles": "O=NN([O-])C1CCCCC1.O=NN([O-])C1CCCCC1.[Cu+2]", "note": "[bis(N-cyclohexyldiazeniumdioxy)copper]", "values": [
      {"measurement": "growth of the isolates", "setting": "[1]; [10]", "result": "still growing"},
      {"measurement": "growth of the isolates", "setting": "[1]; [11]", "result": "no growth"},
      {"measurement": "growth of the isolates", "setting": "[2]; [10]", "result": "still growing"},
      {"measurement": "growth of the isolates", "setting": "[2]; [11]", "result": "no growth"},
      {"measurement": "growth of the isolates", "setting": "[3]; [10]", "result": "still growing"},
      {"measurement": "growth of the isolates", "setting": "[3]; [11]", "result": "no growth"},
      {"measurement": "growth of the isolates", "setting": "[4]; [10]", "result": "still growing"},
      {"measurement": "growth of the isolates", "setting": "[4]; [11]", "result": "no growth"},
      {"measurement": "Effective active ingredient concentration", "setting": "[5]; incubation period 7 days", "result": 15, "unit": "ppm"},
      {"measurement": "Effective active ingredient concentration", "setting": "[5]; incubation period 14 days", "result": 20, "unit": "ppm"},
      {"measurement": "Effective active ingredient concentration", "setting": "[5]; incubation period 21 days", "result": 20, "unit": "ppm"},
      {"measurement": "Effective active ingredient concentration", "setting": "[6]; incubation period 7 days", "result": "≦10 ppm"},
      {"measurement": "Effective active ingredient concentration", "setting": "[6]; incubation period 14 days", "result": 15, "unit": "ppm"},
      {"measurement": "Effective active ingredient concentration", "setting": "[6]; incubation period 21 days", "result": 15, "unit": "ppm"},
      {"measurement": "Effective active ingredient concentration", "setting": "[7]; incubation period 7 days", "result": 25, "unit": "ppm"},
      {"measurement": "Effective active ingredient concentration", "setting": "[7]; incubation period 14 days", "result": 35, "unit": "ppm"},
      {"measurement": "Effective active ingredient concentration", "setting": "[7]; incubation period 21 days", "result": 40, "unit": "ppm"},
      {"measurement": "Effective active ingredient concentration", "setting": "[8]; incubation period 7 days", "result": 15, "unit": "ppm"},
      {"measurement": "Effective active ingredient concentration", "setting": "[8]; incubation period 14 days", "result": 15, "unit": "ppm"},
      {"measurement": "Effective active ingredient concentration", "setting": "[8]; incubation period 21 days", "result": 15, "unit": "ppm"},
      {"measurement": "Effective active ingredient concentration", "setting": "[9]; incubation period 7 days", "result": 30, "unit": "ppm"},
      {"measurement": "Effective active ingredient concentration", "setting": "[9]; incubation period 14 days", "result": 30, "unit": "ppm"},
      {"measurement": "Effective active ingredient concentration", "setting": "[9]; incubation period 21 days", "result": 30, "unit": "ppm"}
    ]}
  ]
}
